29 compounds from patent US9687479B2, “Multisubstituted aromatic compounds as serine protease inhibitors” (VERSEON CORPORATION, priority 2013, dated 2017) can be followed below.

This assay addresses Human thrombin (Homo sapiens (Human), UniProt P00734). The experiment in a line: Thrombin protease activity inhibition assay (chromogenic substrate S-2238). The class given is biochemical. To be noted: 3 nM thrombin, 125 μM S-2238, 10 min pre-incubation, RT. The procedure: The thrombin activity reported herein (e.g., Table A) was obtained as follows. […] Thrombin was assayed in buffer containing 0.05 M Tris (pH 7.4), 0.015 M NaCl and 0.01% PEG-8000. The final concentration of enzyme used was 3 nM thrombin. […] All assays were performed in 96-well microtiter plates at room temperature (RT). […] Inhibitor IC50 values were determined by adding test compound as ten point, three-fold serial dilutions in buffer solution, as known in the art. The plate was read at 10 minutes after substrate addition. The IC50 was calculated by plotting the percent (%) inhibition against compound concentration and fitting the data to a constrained four parameter sigmoidal curve, as known in the art.
In general, IC50 refers to the point on the concentration scale where inhibition reaches its midpoint. Higher therefore signals weaker potency. As to `O=C(c1ccccc1)n1nc(-c2cccn(Cc3ccoc3)c2=O)cc1NCc1ccc(Cl)s1` [Cmpd 64, 3-(1-benzoyl-5-[(5-chlorothiophen-2-yl)methyl]amino-1H-pyrazol-3-yl)-1-(furan-3-ylmethyl)-1,2-dihydropyridin-2-one], the IC50 was below 100 nM.
Next, `O=C(c1ccccc1)n1nc(-c2cccn(Cc3cccnn3)c2=O)cc1NCc1ccc(Cl)s1` [Cmpd 65, 3-(1-benzoyl-5-[(5-chlorothiophen-2-yl)methyl]amino-1H-pyrazol-3-yl)-1-(pyridazin-3-ylmethyl)-1,2-dihydropyridin-2-one]: below 100 nM; `O=C(c1ccccc1)n1nc(-c2cccn(Cc3ccccn3)c2=O)cc1NCc1ccc(Cl)s1` [Cmpd 66, 3-(1-benzoyl-5-[(5-chlorothiophen-2-yl)methyl]amino-1H-pyrazol-3-yl)-1-(pyridin-2-ylmethyl)-1,2-dihydropyridin-2-one]: below 100 nM; `O=C(c1ccccc1)n1nc(-c2cccn(Cc3cccnc3)c2=O)cc1NCc1ccc(Cl)s1` [Cmpd 67, 3-(1-benzoyl-5-[(5-chlorothiophen-2-yl)methyl]amino-1H-pyrazol-3-yl)-1-(pyridin-3-ylmethyl)-1,2-dihydropyridin-2-one]: below 100 nM.
With `O=C(c1ccccc1)n1nc(-c2cccn(Cc3ccncc3)c2=O)cc1NCc1ccc(Cl)s1` [Cmpd 68, 3-(1-benzoyl-5-[(5-chlorothiophen-2-yl)methyl]amino-1H-pyrazol-3-yl)-1-(pyridin-4-ylmethyl)-1,2-dihydropyridin-2-one], the IC50 is above 100000 nM.
`O=C(c1ccccc1)n1nc(-c2cccn(Cc3ncccn3)c2=O)cc1NCc1ccc(Cl)s1` [Cmpd 69, 3-(1-benzoyl-5-[(5-chlorothiophen-2-yl)methyl]amino-1H-pyrazol-3-yl)-1-(pyrimidin-2-ylmethyl)-1,2-dihydropyridin-2-one] showed an IC50 below 100 nM.
`O=C(c1ccccc1)n1nc(-c2cccn(Cc3cccs3)c2=O)cc1NCc1ccc(Cl)s1` [Cmpd 70, 3-(1-benzoyl-5-[(5-chlorothiophen-2-yl)methyl]amino-1H-pyrazol-3-yl)-1-(thiophen-2-ylmethyl)-1,2-dihydropyridin-2-one]: the IC50 is below 100 nM.
`O=C(c1ccccc1)n1nc(-c2cccn(Cc3ccsc3)c2=O)cc1NCc1ccc(Cl)s1` [Cmpd 71, 3-(1-benzoyl-5-[(5-chlorothiophen-2-yl)methyl]amino-1H-pyrazol-3-yl)-1-(thiophen-3-ylmethyl)-1,2-dihydropyridin-2-one] registered an IC50 below 100 nM.
The compound `O=C(c1ccccc1)n1nc(-c2cccn(Cc3ccccc3)c2=O)cc1NCc1ccc(Cl)s1` [Cmpd 72, 3-(1-benzoyl-5-[(5-chlorothiophen-2-yl)methyl]amino-1H-pyrazol-3-yl)-1-benzyl-1,2-dihydropyridin-2-one] registered an IC50 below 100 nM.
As for `O=C(c1ccco1)n1nc(-c2cccn(Cc3ccccn3)c2=O)cc1NCc1ccc(F)cc1` [Cmpd 74, 3-(5-[(4-fluorophenyl)methyl]amino-1-[(furan-2-yl)carbonyl]-1H-pyrazol-3-yl)-1-(pyridin-2-ylmethyl)-1,2-dihydropyridin-2-one], the IC50 is below 100 nM.
Compound `COCCn1cccc(-c2cc(NCc3ccc(Cl)s3)n(C(=O)C(C)(C)C)n2)c1=O` [Cmpd 75, 3-(5-[(5-chlorothiophen-2-yl)methyl]amino-1-(2,2-dimethylpropanoyl)-1H-pyrazol-3-yl)-1-(2-methoxyethyl)-1,2-dihydropyridin-2-one] yielded an IC50 below 100 nM.
In turn, `CC(C)(C)C(=O)n1nc(-c2cccn(CCc3ccccc3)c2=O)cc1NCc1ccc(Cl)s1` [Cmpd 76, 3-(5-[(5-chlorothiophen-2-yl)methyl]amino-1-(2,2-dimethylpropanoyl)-1H-pyrazol-3-yl)-1-(2-phenylethyl)-1,2-dihydropyridin-2-one] returned an IC50 below 100 nM.
Take `CC(C)(C)C(=O)n1nc(-c2cccn(Cc3ccoc3)c2=O)cc1NCc1ccc(Cl)s1` [Cmpd 78, 3-(5-[(5-chlorothiophen-2-yl)methyl]amino-1-(2,2-dimethylpropanoyl)-1H-pyrazol-3-yl)-1-(furan-3-ylmethyl)-1,2-dihydropyridin-2-one]: the IC50 was below 100 nM.
`CC(C)(C)C(=O)n1nc(-c2cccn(Cc3cccc4ccccc34)c2=O)cc1NCc1ccc(Cl)s1` [Cmpd 79, 3-(5-[(5-chlorothiophen-2-yl)methyl]amino-1-(2,2-dimethylpropanoyl)-1H-pyrazol-3-yl)-1-(naphthalen-1-ylmethyl)-1,2-dihydropyridin-2-one] registered an IC50 below 100 nM.
For `CC(C)(C)C(=O)n1nc(-c2cccn(Cc3ccc4ccccc4c3)c2=O)cc1NCc1ccc(Cl)s1` [Cmpd 80, 3-(5-[(5-chlorothiophen-2-yl)methyl]amino-1-(2,2-dimethylpropanoyl)-1H-pyrazol-3-yl)-1-(naphthalen-2-ylmethyl)-1,2-dihydropyridin-2-one] the value was below 100 nM; for `CC(C)(C)C(=O)n1nc(-c2cccn(Cc3ccccn3)c2=O)cc1NCc1ccc(Cl)s1` [Cmpd 82, 3-(5-[(5-chlorothiophen-2-yl)methyl]amino-1-(2,2-dimethylpropanoyl)-1H-pyrazol-3-yl)-1-(pyridin-2-ylmethyl)-1,2-dihydropyridin-2-one], below 100 nM.
Turning to `CC(C)(C)C(=O)n1nc(-c2cccn(Cc3cccnc3)c2=O)cc1NCc1ccc(Cl)s1` [Cmpd 83, 3-(5-[(5-chlorothiophen-2-yl)methyl]amino-1-(2,2-dimethylpropanoyl)-1H-pyrazol-3-yl)-1-(pyridin-3-ylmethyl)-1,2-dihydropyridin-2-one], the IC50 was below 100 nM.
Next, `CC(C)(C)C(=O)n1nc(-c2cccn(Cc3ccncc3)c2=O)cc1NCc1ccc(Cl)s1` [Cmpd 84, 3-(5-[(5-chlorothiophen-2-yl)methyl]amino-1-(2,2-dimethylpropanoyl)-1H-pyrazol-3-yl)-1-(pyridin-4-ylmethyl)-1,2-dihydropyridin-2-one]: below 100 nM; `CC(C)(C)C(=O)n1nc(-c2cccn(Cc3ncccn3)c2=O)cc1NCc1ccc(Cl)s1` [Cmpd 85, 3-(5-[(5-chlorothiophen-2-yl)methyl]amino-1-(2,2-dimethylpropanoyl)-1H-pyrazol-3-yl)-1-(pyrimidin-2-ylmethyl)-1,2-dihydropyridin-2-one]: below 100 nM; `CC(C)(C)C(=O)n1nc(-c2cccn(Cc3cccs3)c2=O)cc1NCc1ccc(Cl)s1` [Cmpd 86, 3-(5-[(5-chlorothiophen-2-yl)methyl]amino-1-(2,2-dimethylpropanoyl)-1H-pyrazol-3-yl)-1-(thiophen-2-ylmethyl)-1,2-dihydropyridin-2-one]: below 100 nM.
Next, `CC(C)(C)C(=O)n1nc(-c2cccn(Cc3ccsc3)c2=O)cc1NCc1ccc(Cl)s1` [Cmpd 87, 3-(5-[(5-chlorothiophen-2-yl)methyl]amino-1-(2,2-dimethylpropanoyl)-1H-pyrazol-3-yl)-1-(thiophen-3-ylmethyl)-1,2-dihydropyridin-2-one]: below 100 nM; `CC(C)(C)C(=O)n1nc(-c2cccn(CC(=O)N3CCOCC3)c2=O)cc1NCc1ccc(Cl)s1` [Cmpd 88, 3-(5-[(5-chlorothiophen-2-yl)methyl]amino-1-(2,2-dimethylpropanoyl)-1H-pyrazol-3-yl)-1-[2-(morpholin-4-yl)-2-oxoethyl]-1,2-dihydropyridin-2-one]: below 100 nM.
`CC(C)(C)C(=O)n1nc(-c2cccn(CCN3CCOCC3)c2=O)cc1NCc1ccc(Cl)s1` [Cmpd 89, 3-(5-[(5-chlorothiophen-2-yl)methyl]amino-1-(2,2-dimethylpropanoyl)-1H-pyrazol-3-yl)-1-[2-(morpholin-4-yl)ethyl]-1,2-dihydropyridin-2-one]: the IC50 was below 100 nM.
On to `Cn1cccc(-c2cc(NCc3ccc(Cl)s3)n(C(=O)C(C)(C)C)n2)c1=O` [Cmpd 90, 3-(5-[(5-chlorothiophen-2-yl)methyl]amino-1-(2,2-dimethylpropanoyl)-1H-pyrazol-3-yl)-1-methyl-1,2-dihydropyridin-2-one], for which the IC50 was below 100 nM.
For `CC(C)(CO)C(=O)n1nc(-c2ccc[nH]c2=O)cc1NCc1ccc(Cl)s1` [Cmpd 91, 3-(5-[(5-chlorothiophen-2-yl)methyl]amino-1-(3-hydroxy-2,2-dimethylpropanoyl)-1H-pyrazol-3-yl)-1,2-dihydropyridin-2-one] the value was below 100 nM; for `CC(C)(CO)C(=O)n1nc(-c2cccn(Cc3cccs3)c2=O)cc1NCc1ccc(Cl)s1` [Cmpd 95, 3-(5-[(5-chlorothiophen-2-yl)methyl]amino-1-(3-hydroxy-2,2-dimethylpropanoyl)-1H-pyrazol-3-yl)-1-(thiophen-2-ylmethyl)-1,2-dihydropyridin-2-one], below 100 nM; for `COCC(C)(C)C(=O)n1nc(-c2ccc[nH]c2=O)cc1NCc1ccc(Cl)s1` [Cmpd 96, 3-(5-[(5-chlorothiophen-2-yl)methyl]amino-1-(3-methoxy-2,2-dimethylpropanoyl)-1H-pyrazol-3-yl)-1,2-dihydropyridin-2-one], below 100 nM.
Next, `COCC(C)(C)C(=O)n1nc(-c2cccn(Cc3ccoc3)c2=O)cc1NCc1ccc(Cl)s1` [Cmpd 99, 3-(5-[(5-chlorothiophen-2-yl)methyl]amino-1-(3-methoxy-2,2-dimethylpropanoyl)-1H-pyrazol-3-yl)-1-(furan-3-ylmethyl)-1,2-dihydropyridin-2-one]: below 100 nM; `COCC(C)(C)C(=O)n1nc(-c2cccn(CCN3CCOCC3)c2=O)cc1NCc1ccc(Cl)s1` [Cmpd 107, 3-(5-[(5-chlorothiophen-2-yl)methyl]amino-1-(3-methoxy-2,2-dimethylpropanoyl)-1H-pyrazol-3-yl)-1-[2-(morpholin-4-yl)ethyl]-1,2-dihydropyridin-2-one]: below 100 nM.
